Results on one compound are retold here after patent US10451536B2, “Method and apparatus for multi-parameter data analysis” (GE HEALTHCARE UK LIMITED, priority 2009, dated 2019).

Structures are written as SMILES.

The data set concerns CHO-K1 cells. In words: High-content screening of nuclear morphology in CHO-K1 cells treated with Mitomycin C, with KS distance analysis. Format: cell-based. As to the method:
CHO-K1 cells were seeded into a GE Healthcare 96 well MatriPlate at 6000 cells/well in Ham's F12 media supplemented with 5% EBS and incubated under standard tissue culture conditions for 24 hours. Mitomycin C (MMC) solutions were added in culture media to provide final concentrations in the assay of […] and cells incubated for a further 48 hours. Media was removed from wells and cells washed once with […] phosphate buffered saline (PBS), followed by fixation in ethanol for 30 minutes at room temperature. Nuclei were stained with […] HOECHST™ 33342 (Sigma) at room temperature for 15 minutes and cells washed with […] PBS.
Cells were imaged by a GE Healthcare INCELL ANALYZER 1000™ using v3.5 acquisition software (available from GE Healthcare) with a 20× objective. Images were acquired using on-line cell counting to acquire a minimum of 1000 cells/well. Images were analysed for nuclear area, length, perimeter and weighted moment of inertia (WMOI) using GE INCELL INVESTIGATOR™ software (available from GE Healthcare).
Four nuclear morphology parameters were abstracted from images using automated image analysis and data from replicate samples exposed to the same concentrations of MMC combined to yield population distribution histograms for each of the four parameters as shown in FIGS. 7 to 10. In each of FIGS. 7 to 10 the data in panel 1 is from control cells, and the data in panels 2-12 from MMC treated cells across the range of 0.01 μM-10 μM MMC.
KS distance analysis of the data using intra-sample measurements (i.e. calculation of the KS distance between cell data in the absence of MMC and cell data at a given concentration of MMC across the range 0.01 μM-10 μM) was performed and the resulting data shown in FIG. 11.
Inter-sample KS distances were calculated for all six possible parameter pairings (Area-Length; Area-WMOI; Length-WMOI; Area-Perimeter; Length-Perimeter; Perimeter-WMOI) by calculation of KS distance between data distributions for two parameters at the same MMC concentration. In order to perform KS distance measures on the different parameters of which had variant dimensions, parameter values were normalized (Pnorm) to a range from 0-1 using the function: […]

The mark [1] stands for this setting: CHO-K1 cells, same MMC concentration, normalized parameters, FIG. 12.

In the case of `CO[C@@]12[C@H](COC(N)=O)C3=C(C(=O)C(C)=C(N)C3=O)N1C[C@@H]1N[C@@H]12` [MMC, Mitomycin C], where the note is “CHO-K1 cells, 0, 0.16 and 2.5 μM MMC, 48 hours, HOECHST 33342 nuclear stain, FIG. 6”, the “Nuclear size, shape and morphology in representative HCS images” value was “Changes in nuclear size, shape and morphology are clearly visible”. Where the note is “CHO-K1 cells, 0.01 μM-10 μM MMC, FIG. 11”, the “Intra-sample KS distance relative to untreated cells (nuclear area, length, perimeter, WMOI)” value is “clear dose-dependent increase in KS distances for all four measured parameters”. Also, where the note is “CHO-K1 cells, 0.16 μM MMC, FIG. 6 image B inset”, the “Micronuclei formation (higher magnification view)” value was “nuclei with associated micronuclei arising from clastogenic DNA damage”. Further, under setting [1], the “Inter-sample KS distance Area and perimeter (A-W)” value is “low KS inter-sample distance at low and high MMC concentrations with an increase in KS distance at intermediate concentrations”; the “Inter-sample KS distance Area-Length (A-L)” value was “constant low KS distance across the entire MMC concentration range”; the “Inter-sample KS distance Length-WMOI (L-W)” value is on record as “constant high KS distance over most of the MMC concentration range”; the “Inter-sample KS distance Perimeter-WMOI (P-W)” value was “decreases with MMC concentration”.
